According to publication PMC3551756, “HIV-1 Fusion Is Blocked through Binding of GB Virus C E2D Peptides to the HIV-1 gp41 Disulfide Loop” (PLoS ONE, 2013):

Experiments:
CD4 = CD4 surface expression, flow cytometry; type: cell-based, human; details: PBMC and TZM-bl cells; E2 peptides 25 µM, PMA 40 ng/ml; 6 hr; FACS; RTCN vs mock; average of two independent experiments each in triplicate
Description: (§1) PHA/IL-2-stimulated PBMC or TZM-bl cells were incubated with E2 peptides (25 µM), phorbol 12-myristate 13-acetate (PMA; 40 ng/ml), SDF-1α (1 µg/ml) or RANTES (50 nM) for 6 hr. CD4, CXCR4 and CCR5 surface expression was analyzed by using standard FACS staining protocols. Cells were washed with PBS and incubated for 30 min at 4°C with PE-labeled antibodies (CD4 clone SK3, CXCR4 clone 12G5, and CCR5 clone 2D7, BD Biosciences, Germany). Subsequently, washed cells were resuspended in PBS and analyzed with a FACSCalibur™ flow cytometer (BD Biosciences, Germany).
(§2) The non-HIV-1-inhibitory peptide P28 derived from the C-terminal part of E2 (residue 271 to 290), served as a negative control.
(§3) CD4, CXCR4 and CCR5 expression on PBMC (A) and TZM-bl cells (B) after preincubation with E2 peptides were determined by flow cytometry analysis. […] Percentages illustrate the ratio-to-cell-negative (RTCN) values that were calculated from the percentage of positive cells and the fluorescence intensity of peptide-incubated cells compared to mock-incubated cells. Columns show average values ±SD of two independent experiments each performed in triplicate. *: p<0.05; **: p<0.01 (mock- vs. inhibitor-incubated cells).

F240 = assay: Unspecific binding of E2 peptides to antibody F240; details: data not shown
CCR5 = CCR5 surface expression, flow cytometry; type: cell-based, human; details: PBMC and TZM-bl cells; E2 peptides 25 µM, RANTES 50 nM; 6 hr; FACS; RTCN vs mock; average of two independent experiments each in triplicate
Description: as §1, §2, §3

gp41MN = assay: Competitive ELISA, E2 peptides versus gp41 mAbs on immobilized gp41MN; type: binding, HIV-1; details: increasing peptide, three independent experiments each in duplicate; for inhibition of F240 binding to gp41: mAb F240 (disulfide loop); for inhibition of F240 binding to gp41 / inhibition of T32 binding to gp41: immobilized gp41MN; for inhibition of T32 binding to gp41: mAb T32 (disulfide loop); for inhibition of gp41 binding of 246-D, D50, 5F3, 2F5, 4E10 and Chessie 8: mAbs other than F240 and T32, immobilized gp41MN
Description: Flat-bottom, 96-well Microtest ELISA plates (Sarstedt, Germany) were coated overnight at 4°C with recombinant HIV-1 gp120 (0.5 µg/ml), gp41 (0.22 µg/ml) proteins, or with streptavidin (4 µg/ml) in coating buffer (0.1 M NaHCO3, 0.1 M Na2CO3, pH 9.87). Nonspecific binding was blocked (blocking buffer: 1% BSA, 0.1% Tween-20 in phosphate buffer, pH 7.2) for 1 h at room temperature, followed by washing steps (wash buffer: 0.1% Tween in phosphate buffer, pH 7.2). Streptavidin-coated plates were then incubated with gp41 disulfide loop peptides (Loop36ox or Loop36s; 2.5 µM). All plates were then incubated with recombinant E2_340-Fc or Fc protein in serial dilutions in sample buffer (phosphate buffer, pH 7.2) for 3 hr at room temperature. To perform the competitive ELISAs, the recombinant E2_340-Fc protein was adjusted at 5 µg/ml and the monoclonal gp41 antibodies (246-D, F240, T32, D50, 2F5, 4E10, Chessie 8 [all: NIH AIDS Research and Reference Reagent Program], and 5F3 [Polymun, Austria]) at […]. After washing procedure, the plates were incubated for 1 h with polyclonal rabbit anti-human IgG peroxidase antibody (Dako, Germany) 1∶6000 in sample buffer and washed. Plates were developed with TMB peroxidase substrate solution (KPL, USA), or with OPD/H2O2 solution in the dark. Absorbances (ODs) were read at 450 or 492 nm, respectively, using a multi-channel photometer (ELISA-Reader AxSYM, Abbott Laboratory, USA).
(A) Illustration of gp41 variants (strains IIIB, MN) and peptides (N36, C34) used in ELISA as well as the binding epitopes of different monoclonal gp41 antibodies. Gp41 consists of the N-terminal fusion peptide (FP), the N- and C-heptad repeats (NHR, CHR) that are connected by the disulfide loop region (C-C loop), the membrane proximal external region (MPER), the α-helical transmembrane-spanning domain (TM), and the cytoplasmic tail (CP). […] Each sample was tested in triplicate. […] (C) Competitive binding of E2 peptides and different gp41 targeting mAbs to immobilized recombinant gp41MN. Simultaneously to mAb incubation E2 peptides were added with increasing amounts. […] The graphs show average values of three independent experiments each performed in duplicate.
Finally, we performed a direct binding assay with biotin-tagged 36mer gp41 disulfide loop peptides (residues from 588 to 623 according to HIV gp160HxB2) and GBV-C E2_340-Fc. We immobilized via streptavidin an oxidized (closed loop) or a linear variant of the disulfide loop, in which the cysteine residues were replaced with serine (Table S1) onto plates and the binding of graded concentrations of GBV-C E2_340-Fc was monitored with HRP-anti-human antibodies.

[1] = target: E2_340-Fc / HIV-1 gp41MN interaction (Human immunodeficiency virus type 1 group M subtype B, UniProt P05877); type: binding; details: ELISA, immobilized gp41MN, E2_340-Fc constant (5 µg/ml), increasing peptide; three independent experiments each in duplicate
E2_340-Fc / HIV-1 gp41MN interaction, sequence (P05877 514-856): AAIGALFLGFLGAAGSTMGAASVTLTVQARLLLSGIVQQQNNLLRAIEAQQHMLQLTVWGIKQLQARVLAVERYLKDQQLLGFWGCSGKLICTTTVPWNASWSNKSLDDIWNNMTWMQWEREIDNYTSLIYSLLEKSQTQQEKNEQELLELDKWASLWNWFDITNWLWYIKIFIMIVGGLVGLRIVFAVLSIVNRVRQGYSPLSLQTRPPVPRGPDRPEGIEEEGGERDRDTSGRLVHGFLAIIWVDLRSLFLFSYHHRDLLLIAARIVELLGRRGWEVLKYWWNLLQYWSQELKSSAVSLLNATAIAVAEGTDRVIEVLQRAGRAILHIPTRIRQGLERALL
Description: Flat-bottom, 96-well Microtest ELISA plates (Sarstedt, Germany) were coated overnight at 4°C with recombinant HIV-1 gp120 (0.5 µg/ml), gp41 (0.22 µg/ml) proteins, or with streptavidin (4 µg/ml) in coating buffer (0.1 M NaHCO3, 0.1 M Na2CO3, pH 9.87). Nonspecific binding was blocked (blocking buffer: 1% BSA, 0.1% Tween-20 in phosphate buffer, pH 7.2) for 1 h at room temperature, followed by washing steps (wash buffer: 0.1% Tween in phosphate buffer, pH 7.2). […] All plates were then incubated with recombinant E2_340-Fc or Fc protein in serial dilutions in sample buffer (phosphate buffer, pH 7.2) for 3 hr at room temperature. To perform the competitive ELISAs, the recombinant E2_340-Fc protein was adjusted at 5 µg/ml and the monoclonal gp41 antibodies (246-D, F240, T32, D50, 2F5, 4E10, Chessie 8 [all: NIH AIDS Research and Reference Reagent Program], and 5F3 [Polymun, Austria]) at 100 µM. After washing procedure, the plates were incubated for 1 h with polyclonal rabbit anti-human IgG peroxidase antibody (Dako, Germany) 1∶6000 in sample buffer and washed. Plates were developed with TMB peroxidase substrate solution (KPL, USA), or with OPD/H2O2 solution in the dark. Absorbances (ODs) were read at 450 or 492 nm, respectively, using a multi-channel photometer (ELISA-Reader AxSYM, Abbott Laboratory, USA).
(C) E2 peptides with increasing amounts were added to recombinant E2_340-Fc protein (at constant concentration) and then transferred to immobilized recombinant gp41MN.
Competitive binding of E2 and gp120 peptides (N35, N35s) with recombinant E2_340-Fc protein to immobilized recombinant gp41MN. Simultaneously to E2_340-Fc incubation peptides of E2 or gp120 were added with increasing amounts.

| Molecule | CD4 surface presentation (CD4) | unspecific binding to antibody F240 (F240) | CCR5 surface presentation (CCR5) | inhibition of F240 binding to gp41 (gp41MN) | inhibition of T32 binding to gp41 (gp41MN) | inhibition of gp41 binding of 246-D, D50, 5F3, 2F5, 4E10 and Chessie 8 (gp41MN) | competition with E2_340-Fc for gp41 binding [1] |
| --- | --- | --- | --- | --- | --- | --- | --- |
| CC(=O)N[C@@H](CC(C)C)C(=O)N[C@@H](CS)C(=O)N[C@@H](CC(=O)O)C(=O)N[C@@H](CS)C(=O)N1CCC[C@H]1C(=O)N[C@@H](CC(N)=O)C(=O)NCC(=O)N1CCC[C@H]1C(=O)N[C@@H](Cc1c[nH]c2ccccc12)C(=O)N[C@H](C(=O)N[C@@H](Cc1c[nH]c2ccccc12)C(=O)N[C@H](C(=O)N1CCC[C@H]1C(=O)N[C@@H](C)C(=O)N[C@@H](Cc1ccccc1)C(=O)N[C@@H](CS)C(=O)N[C@@H](CCC(N)=O)C(=O)N[C@@H](C)C(=O)N[C@H](C(=O)NCC(=O)O)C(C)C)C(C)C)C(C)C [P6-2] | no relevant effect on HIV-1 receptor presentation | No unspecific binding | no relevant effect on HIV-1 receptor presentation | inhibited in a dose-dependent manner | inhibited in a dose-dependent manner | Of the eight antibodies, only the gp41 interaction of F240 and T32 was inhibited | abrogated the protein-protein interaction between HIV-1 gp41 and GBV-C E2 in a dose-dependent manner |
| Ac-WDRGNVTLLCDCPNGPWVWV [P4-7, 20 mer peptide presenting amino acids 37 to 56 of the GBV-C E2 protein] | no relevant effect on HIV-1 receptor presentation | No unspecific binding | no relevant effect on HIV-1 receptor presentation | inhibited in a dose-dependent manner | inhibited in a dose-dependent manner | Of the eight antibodies, only the gp41 interaction of F240 and T32 was inhibited | abrogated the protein-protein interaction between HIV-1 gp41 and GBV-C E2 in a dose-dependent manner |
